Source: US20110296540A1, “ASSAY FOR SCREENING ANTIDEPRESSANTS” (priority 2008, published 2011)

Tests used:
C57BL/6Ntac mice = assay: Open Field paradigm, chronic corticosterone model; format: in vivo
Excerpt: (§1) The procedure described previously was used (Dulawa et al., 2004). Motor activity was quantified in four Plexiglas open field boxes 43 times 43 cm2 (MED Associates, Georgia, Vt.). Two sets of 16 pulse-modulated infrared photobeams were placed on opposite walls 2.5-cm apart to record x-y ambulatory movements. Activity chambers were computer interfaced for data sampling at 100-ms resolution. The computer defined grid lines that divided each Open Field into center and surround regions, with each of four lines being 11 cm from each wall. Dependent measures in the center were the total time and the number of entries over a 30-min period of test. The whole session was also divided in […] to analyze the time spent in the center every 5 min. The overall motor activity was quantified as the total distance traveled (cm) or distance traveled in the center divided by total distance traveled.
Mice were anesthetized with ketamine and xylazine (100 mg/ml ketamine; 20 mg/ml xylazine), placed in a stereotaxic frame and exposed to cranial irradiation using a Siemens Stabilopan X-ray system operated at 300 kVp and 20 mA. Animals were protected with a lead shield that covered the entire body, but left unshielded a 3.22×11-mm treatment field above the hippocampus (interaural 3.00 to 0.00) exposed to X-Ray. Dosimetry was done using a Capintec Model PR06G electrometer ionization chamber and Kodak Readypack Radiographic XV films. The corrected dose rate was approximately 1.8 Gy per min at a source to skin distance of 30 cm. The procedure lasted 2 min and 47 sec, delivering a total of 5 Gy. Three 5 Gy doses were delivered on days 1, 4 and 8.

[1] = system: β-arrestin 2 knock out mice (S129/Sv×C57BL/6); assay: Open Field paradigm in β-arrestin 2 knock out mice and littermates; format: in vivo
Excerpt: Adult male C57BL/6Ntac mice were purchased from Taconic Farms (Germantown, N.Y., USA; Lille Skensved, Denmark). Male heterozygous β-arrestin 2+/− and heterozygous female mutant β-arrestin+/− mice (age 4-6 months, 25-30 g body weight) were bred on a mixed S129/Sv×C57BL/6 genetic background raised at the animal facility of Columbia University (New York, USA). […] Food and water were provided ad libitum. Behavioral testing occurred during the light phase between 0700 and 1900 for the OF, NSF and FST, splash test.
For all the studies, control mice received β-CD.
as §1, with “Motor” for “The procedure described previously was used (Dulawa et al., 2004). Motor”

[2] = system: DCX+ immature granule cells; assay: DCX immunohistochemistry: number, dendritic morphology and Sholl analysis of immature granule cells; format: in vivo, mice
Method: Immunohistochemistry and confocal imaging. Mice were anesthetized with ketamine/xylazine (100 and 7 mg/kg, respectively) and transcardially perfused (cold saline, followed by 4% cold paraformaldehyde in PBS). […] Immunohistochemistry was performed in the following steps: 2 h incubation in 1:1 formamide/2×SSC at 65° C., 5 min rinse in 2×SSC, 30 min incubation in 2N HCl at 37° C., and 10 min rinse in 0.1M boric acid, pH 8.5, 2 h incubation in 0.1M PBS with 0.3% Triton X-100, and 5% normal donkey serum. Sections were then incubated overnight at 4° C. in primary antibodies for doublecortin (goat; 1:500; Santa Cruz Biotechnology, Santa Cruz, Calif.), bromodeoxyuridine (BrdU; rat; 1:100; Serotec, Oxford, UK), and neuronal-specific nuclear protein (NeuN) (mouse; 1:500; Chemicon, Temecula, Calif.). Biotinylated or fluorescent secondary antibodies were used. All secondary antibodies were purchased from Jackson ImmunoResearch (West Grove, Pa.). DCX staining for Sholl analysis was done as follows: sections were rinsed in PBS, treated with 1% H2O2 in 1:1 PBS and methanol for 15 min to quench endogenous peroxidase activity (and to enhance dendritic staining), incubated in 10% normal donkey serum and 0.3% Triton X-100 for 30 min, and then incubated overnight at 4° C. in primary antibody for doublecortin. After secondary antibody incubation, sections were developed using Vector ABC kit and DAB kit. Bright-field images were taken with a Zeiss (Oberkochen, Germany) Axioplan-2 upright microscope. Stereological procedure was used to quantify labeled cells (Malberg et al., 2000 ? ). All cell counting for triple-stained sections were done using a Zeiss LSM 510 META confocal microscope.
Sholl analysis. DCX-positive (DCX^+) granule cells with tertiary, relatively untruncated dendritic branches or BrdU/DCX double-positive cells (one DCX^+ cell was traced for each […] hippocampal slice; n=10-12 cells per brain for DAB-stained sections; n=4-8 cells per brain for fluorescent staining, 5 mice per group) were traced using camera lucida at 40× magnification (Neurolucida; MicroBrightField, Williston, Vt.). Adult SvEvTac129 mice (16-20 weeks old) were used to obtain sparsely labeled DCX^+ cells. DCX immunohistochemistry was done to maximize the labeling of dendrites (see above methods). Sholl analysis for dendritic complexity was performed using the accompanying software (NeuroExplorer; MicroBrightField), calculating dendritic complexity including dendritic length and number of intersections (branch points). All samples were number coded, and analysis was done blind to treatment.
Next, the DCX^+ cells were subcategorized according to their dendritic morphology: (1) DCX^+ cells with no tertiary dendritic processes (FIG. 2A), and (2) DCX^+ cells with complex, tertiary dendrites (FIG. 2B). […] The results are mean±SEM of DCX^+ cells with tertiary branches.
Double fluorescent immunohistochemistry for BrdU and DCX were performed on hippocampal sections. BrdU cells that were also DCX' were identified and then Sholl analysis on the double-positive cells was performed (FIG. 3 D-G).

[3] = system: doublecortin positive cells; assay: Doublecortin (DCX) labeling for maturation index study, corticosterone model; format: in vivo, mice
Excerpt: The secondary antibody was biotinylated donkey anti-goat (1:500) (Jackson ImmunoResearch, West Grove, Pa.) in PBS for 2 hr at room temperature. Sections were developed using avidin-biotin complex (Vector, USA) and DAB kit.

## CNCCC(Oc1ccc(C(F)(F)F)cc1)c1ccccc1 (stereo not drawn) [fluoxetine]
C57BL/6Ntac mice; 3-week antidepressant treatment in corticosterone-treated mice, imipramine 40, fluoxetine 18 mg/kg/day
  corticosterone-induced anxiety phenotype in the Open Field (time and entries in the center): reversed
C57BL/6Ntac mice; chronic corticosterone, with or without chronic fluoxetine
  ambulatory distance (Open Field): abolished
C57BL/6Ntac mice; chronic fluoxetine, regardless of X-irradiation
  corticosterone-induced decrease of Open Field center parameters: reversed
[1]; wild-type animals, 4 weeks fluoxetine
  total number of entries in the center (Open Field): increased
[1]; wild-type animals, 4 weeks fluoxetine 18 mg/kg/day
  time spent in the center (Open Field): increased
[1]; β-arrestin 2 knock out mice
  effect of fluoxetine on time spent in the center (Open Field): abolished
  total ambulatory distance (Open Field): absence of effects
  total number of entries in the center (Open Field): absence of effects
[2]; chronic (28 d)
  dendritic length of DCX+ cells (Sholl analysis): increased
  number of DCX+ cells with tertiary dendrites: significantly increased
  number of intersections of DCX+ cells (Sholl analysis): increased
[2]; three weeks of fluoxetine
  dendritic length in 3-week-old granule cells (BrdU/DCX double-positive): enhanced
  number of intersections in 3-week-old granule cells (BrdU/DCX double-positive): enhanced
[3]; chronic fluoxetine, control animals
  number of doublecortin positive cells with tertiary dendrites: increased
[3]; in the presence of corticosterone, compared with controls
  effect of fluoxetine on the number of doublecortin positive cells and their dendritic morphology: even more pronounced
